PMC11770821, “Pharmacokinetics and pharmacodynamics of an innovative psychedelic N,N-dimethyltryptamine/harmine formulation in healthy participants: a randomized controlled trial” (International Journal of Neuropsychopharmacology, 2025)

Experiments:
healthy male volunteers [1] = experiment: Acute subjective drug effects, visual analog scales (VAS 0–100); type: in vivo, human; settings: for subjective ratings of acute drug effects compared to placebo: 100 mg buccal harmine alone vs placebo
Description: The detailed dosing scheme is depicted in Figure 1.
The intensity of acute subjective effects was monitored with visual analog scales (VASs, range 0–100) on a touchscreen tablet throughout the study day at baseline (−90), 0, 30, 60, 90, 120, 180, 240, and 300 after the first DMT/placebo administration. At 360 minutes after the first DMT/placebo administration, a phenomenological interview was conducted with participants to further explore acute subjective drug effects. For PK-PD analyses, we included VAS for intensity, liking, disliking, and arousal in the present paper. Further analyses on a set of neurophysiological, psychometric, and phenomenological assessments will be presented in forthcoming manuscripts.

healthy male volunteers [2] = experiment: Undesired drug effects / adverse events questionnaire (y/n and VAS 0–100); type: in vivo, human
Description: (§1) The participants were monitored with regard to AEs throughout the experiment by the study physician, including questionnaire-based assessments (VAS, 0-100 or y/n) of physical and mental discomfort, breathing difficulties, racing heartbeat, chest or abdominal pains, unpleasant body sensations/muscle pain, headache, nausea, vomiting, and fainting at baseline (−105), 0, 30, 60, 120, 240, and 300 minutes after DMT/placebo administration. Vital signs (systolic/diastolic blood pressure [DBP], heart rate, body temperature [BT]) were assessed using a semiautomatic blood pressure and oral temperature recording device throughout the study at baseline (−45), 0, 30, 120, 150, 210, and 270 minutes after the first DMT/placebo administration.

healthy male volunteers [3] = settings: in vivo
Description: as §1

[4] = 0 min after first intranasal DMT/placebo administration
[5] = 60 min after first intranasal DMT/placebo administration
[6] = 120 min after first intranasal DMT/placebo administration
[7] = 180 min after first intranasal DMT/placebo administration
[8] = 240 min after first intranasal DMT/placebo administration
[9] = 300 min after first intranasal DMT/placebo administration
[10] = −105 min (baseline) relative to first intranasal DMT/placebo administration

## COc1ccc2c(c1)[nH]c1c(C)nccc12 [Harmine, harmine]
Healthy male volunteers [1]
  subjective ratings of acute drug effects compared to placebo: no statistical differences
Healthy male volunteers [1]; listed as HAR
  subjective ratings of acute drug effects compared to placebo: no significant difference
Healthy male volunteers [1]; at 90 minutes (max. intensity ratings)
  effect size, intensity ratings, contrast vs PLA: 0.133
Healthy male volunteers [1]; at 240 minutes
  effect size, intensity ratings, contrast vs PLA: 0.127
Healthy male volunteers [1]; mean (SD)
  peak effects of arousal, VAS: 9.9 % of the maximal possible scor
  peak effects of disliking, VAS: 7.8 % of the maximal possible scor
  peak effects of liking, VAS: 20.0 % of the maximal possible scor
  peak intensity, VAS: 7.6 % of the maximal possible scor
Healthy male volunteers [2]; [4]
  Breathing difficulty, mean intensity [0–100] (SD): 18 (25)
  Breathing difficulty, number of participants reporting: 3
  Chest pain, mean intensity [0–100] (SD): 24 (32)
  Chest pain, number of participants reporting: 2
  Fainting, mean intensity [0–100] (SD): 0 (0)
  Fainting, number of participants reporting: 0
  Head ache, mean intensity [0–100] (SD): 3 (0)
  Head ache, number of participants reporting: 1
  Heart racing, mean intensity [0–100] (SD): 28 (35)
  Heart racing, number of participants reporting: 2
  Muscle ache, mean intensity [0–100] (SD): 9 (7)
  Muscle ache, number of participants reporting: 6
  Nausea, mean intensity [0–100] (SD): 2 (0)
  Nausea, number of participants reporting: 1
  Psychological distress, mean intensity [0–100] (SD): 6 (2)
  Psychological distress, number of participants reporting: 3
  Somatic distress, mean intensity [0–100] (SD): 18 (14)
  Somatic distress, number of participants reporting: 5
  Stomach ache, mean intensity [0–100] (SD): 2 (0)
  Stomach ache, number of participants reporting: 1
  Vomiting, mean intensity [0–100] (SD): 0 (0)
  Vomiting, number of participants reporting: 0
Healthy male volunteers [2]; [5]
  Breathing difficulty, mean intensity [0–100] (SD): 21 (28)
  Breathing difficulty, number of participants reporting: 2
  Chest pain, mean intensity [0–100] (SD): 13 (8)
  Chest pain, number of participants reporting: 2
  Fainting, mean intensity [0–100] (SD): 0 (0)
  Fainting, number of participants reporting: 0
  Head ache, mean intensity [0–100] (SD): 34 (47)
  Head ache, number of participants reporting: 2
  Heart racing, mean intensity [0–100] (SD): 9 (0)
  Heart racing, number of participants reporting: 1
  Muscle ache, mean intensity [0–100] (SD): 22 (0)
  Muscle ache, number of participants reporting: 2
  Nausea, mean intensity [0–100] (SD): 11 (10)
  Nausea, number of participants reporting: 3
  Psychological distress, mean intensity [0–100] (SD): 8 (8)
  Psychological distress, number of participants reporting: 2
  Somatic distress, mean intensity [0–100] (SD): 9 (5)
  Somatic distress, number of participants reporting: 5
  Stomach ache, mean intensity [0–100] (SD): 52 (0)
  Stomach ache, number of participants reporting: 1
  Vomiting, mean intensity [0–100] (SD): 0 (0)
  Vomiting, number of participants reporting: 0
Healthy male volunteers [2]; [6]
  Breathing difficulty, mean intensity [0–100] (SD): 7 (8)
  Breathing difficulty, number of participants reporting: 3
  Chest pain, mean intensity [0–100] (SD): 4 (3)
  Chest pain, number of participants reporting: 3
  Fainting, mean intensity [0–100] (SD): 0 (0)
  Fainting, number of participants reporting: 0
  Head ache, mean intensity [0–100] (SD): 11 (0)
  Head ache, number of participants reporting: 1
  Heart racing, mean intensity [0–100] (SD): 5 (5)
  Heart racing, number of participants reporting: 3
  Muscle ache, mean intensity [0–100] (SD): 10 (9)
  Muscle ache, number of participants reporting: 3
  Nausea, mean intensity [0–100] (SD): 15 (0)
  Nausea, number of participants reporting: 1
  Psychological distress, mean intensity [0–100] (SD): 4 (5)
  Psychological distress, number of participants reporting: 2
  Somatic distress, mean intensity [0–100] (SD): 7 (5)
  Somatic distress, number of participants reporting: 7
  Stomach ache, mean intensity [0–100] (SD): 30 (37)
  Stomach ache, number of participants reporting: 2
  Vomiting, mean intensity [0–100] (SD): 0 (0)
  Vomiting, number of participants reporting: 0
Healthy male volunteers [2]; [7]
  Breathing difficulty, mean intensity [0–100] (SD): 0 (0)
  Breathing difficulty, number of participants reporting: 0
  Chest pain, mean intensity [0–100] (SD): 0 (0)
  Chest pain, number of participants reporting: 0
  Fainting, mean intensity [0–100] (SD): 0 (0)
  Fainting, number of participants reporting: 0
  Head ache, mean intensity [0–100] (SD): 72 (0)
  Head ache, number of participants reporting: 1
  Heart racing, mean intensity [0–100] (SD): 1 (0)
  Heart racing, number of participants reporting: 1
  Muscle ache, mean intensity [0–100] (SD): 16 (14)
  Muscle ache, number of participants reporting: 4
  Nausea, mean intensity [0–100] (SD): 1 (0)
  Nausea, number of participants reporting: 1
  Psychological distress, mean intensity [0–100] (SD): 9 (0)
  Psychological distress, number of participants reporting: 1
  Somatic distress, mean intensity [0–100] (SD): 13 (3)
  Somatic distress, number of participants reporting: 4
  Stomach ache, mean intensity [0–100] (SD): 0 (0)
  Stomach ache, number of participants reporting: 0
  Vomiting, mean intensity [0–100] (SD): 0 (0)
  Vomiting, number of participants reporting: 0
Healthy male volunteers [2]; [8]
  Breathing difficulty, mean intensity [0–100] (SD): 6 (0)
  Breathing difficulty, number of participants reporting: 1
  Chest pain, mean intensity [0–100] (SD): 1 (0)
  Chest pain, number of participants reporting: 1
  Fainting, mean intensity [0–100] (SD): 0 (0)
  Fainting, number of participants reporting: 0
  Head ache, mean intensity [0–100] (SD): 27 (0)
  Head ache, number of participants reporting: 1
  Heart racing, mean intensity [0–100] (SD): 3 (0)
  Heart racing, number of participants reporting: 1
  Muscle ache, mean intensity [0–100] (SD): 21 (5)
  Muscle ache, number of participants reporting: 3
  Nausea, mean intensity [0–100] (SD): 2 (0)
  Nausea, number of participants reporting: 1
  Psychological distress, mean intensity [0–100] (SD): 3 (1)
  Psychological distress, number of participants reporting: 2
  Somatic distress, mean intensity [0–100] (SD): 16 (12)
  Somatic distress, number of participants reporting: 4
  Stomach ache, mean intensity [0–100] (SD): 32 (44)
  Stomach ache, number of participants reporting: 2
  Vomiting, mean intensity [0–100] (SD): 0 (0)
  Vomiting, number of participants reporting: 0
Healthy male volunteers [2]; [9]
  Breathing difficulty, mean intensity [0–100] (SD): 3 (0)
  Breathing difficulty, number of participants reporting: 1
  Chest pain, mean intensity [0–100] (SD): 0 (0)
  Chest pain, number of participants reporting: 0
  Fainting, mean intensity [0–100] (SD): 0 (0)
  Fainting, number of participants reporting: 0
  Head ache, mean intensity [0–100] (SD): 0 (0)
  Head ache, number of participants reporting: 0
  Heart racing, mean intensity [0–100] (SD): 49 (0)
  Heart racing, number of participants reporting: 1
  Muscle ache, mean intensity [0–100] (SD): 9 (11)
  Muscle ache, number of participants reporting: 2
  Nausea, mean intensity [0–100] (SD): 2 (1)
  Nausea, number of participants reporting: 2
  Psychological distress, mean intensity [0–100] (SD): 70 (0)
  Psychological distress, number of participants reporting: 1
  Somatic distress, mean intensity [0–100] (SD): 12 (5)
  Somatic distress, number of participants reporting: 3
  Stomach ache, mean intensity [0–100] (SD): 2 (0)
  Stomach ache, number of participants reporting: 1
  Vomiting, mean intensity [0–100] (SD): 0 (0)
  Vomiting, number of participants reporting: 0
Healthy male volunteers [2]; in vivo
  overall safety and tolerability of drug-induced AEs: mild and well tolerated
Healthy male volunteers [2]; [10]
  Breathing difficulty, mean intensity [0–100] (SD): 12 (15)
  Breathing difficulty, number of participants reporting: 2
  Chest pain, mean intensity [0–100] (SD): 0 (0)
  Chest pain, number of participants reporting: 0
  Fainting, mean intensity [0–100] (SD): 0 (0)
  Fainting, number of participants reporting: 0
  Head ache, mean intensity [0–100] (SD): 8 (7)
  Head ache, number of participants reporting: 3
  Heart racing, mean intensity [0–100] (SD): 9 (6)
  Heart racing, number of participants reporting: 3
  Muscle ache, mean intensity [0–100] (SD): 11 (9)
  Muscle ache, number of participants reporting: 5
  Nausea, mean intensity [0–100] (SD): 6 (0)
  Nausea, number of participants reporting: 1
  Psychological distress, mean intensity [0–100] (SD): 13 (8)
  Psychological distress, number of participants reporting: 4
  Somatic distress, mean intensity [0–100] (SD): 17 (12)
  Somatic distress, number of participants reporting: 7
  Stomach ache, mean intensity [0–100] (SD): 12 (15)
  Stomach ache, number of participants reporting: 2
  Vomiting, mean intensity [0–100] (SD): 0 (0)
  Vomiting, number of participants reporting: 0
Healthy male volunteers [3]
  change of cardiovascular parameters: no relevant changes
